Data on 19 molecules can be found in patent US20210221785A1, “AMINO-PYRIMIDONYL DERIVATIVES, A PROCESS FOR THEIR PREPARATION AND PHARMACEUTICAL COMPOSITIONS CONTAINING THEM” (LES LABORATOIRES SERVIER, priority 2018, published 2021).

The test system of assay [1] is Z138 mantle cell lymphoma tumour cell lines. The experiment in a line: In vitro cytotoxicity, MTT assay. It counts as cell-based. Conditions: Z138 cells exposed to the test compounds for 96 hours, cell viability vs DMSO treated cells. The procedure, abridged:
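Z138 cells exposed to compounds for 96 hours, then MTT added for 4 hours. Viable cells quantified from formazan absorbance at 540 nm.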
Background: Tetrazolium assays rely on reduction of a dye to a coloured formazan, in cell work by metabolically active cells.

Assay [2] has as its target T1, His-His-USP7 (aa208-560, |C315A|) (Homo sapiens, UniProt Q93009, C315A).
T1 construct: His-His-USP7 (aa208-560, |C315A|); His-His (N)
The experiment in a line: Evaluation of the inhibition of USP7 by the Fluorescence Intensity (FLINT) readings. The class given is biochemical. Conditions: 0.25 nM His-His-USP7, compound incubated 60 minutes at 30° C., 500 nM Ubiquitin-Rhodamine-110 substrate; 50% reduction in kinetic rate. The method, boiled down: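 0.25 nM His-His-USP7 (aa208–560, C315A) preincubated 60 min at 30 °C with compound in 100 mM Bicine pH 8.0, 0.01% Triton X-100, 1 mM TCEP, 10% DMSO. Reaction started with 500 nM ubiquitin-rhodamine-110 and fluorescence (Ex485/Em535) read every 3 min for 21 min. IC50 derived from kinetic-rate reduction over an 11-point curve, 4-parameter fit.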

T1 sequence (Q93009 208-560 C315A): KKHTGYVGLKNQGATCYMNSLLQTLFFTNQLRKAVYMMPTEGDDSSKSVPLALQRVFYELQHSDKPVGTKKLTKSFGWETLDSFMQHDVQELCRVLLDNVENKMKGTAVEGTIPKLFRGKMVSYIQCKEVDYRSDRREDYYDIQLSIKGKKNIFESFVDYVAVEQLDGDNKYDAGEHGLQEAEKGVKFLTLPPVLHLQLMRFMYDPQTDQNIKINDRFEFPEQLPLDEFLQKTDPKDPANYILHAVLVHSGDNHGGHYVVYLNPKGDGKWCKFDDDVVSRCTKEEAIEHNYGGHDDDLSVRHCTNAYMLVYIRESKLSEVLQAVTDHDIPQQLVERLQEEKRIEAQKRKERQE

Usually IC50 stands for the concentration that inhibits the measured activity by half. Low readings indicate greater potency, high ones weaker potency. As to `Nc1c(Oc2ccc(F)cc2)ncn(CC2(O)CCN(C(=O)[C@@H]3CC[C@](F)(C#Cc4ccccn4)C[C@H]3c3ccccc3)CC2)c1=O` [Example 132, 5-amino-3-[(1-{[(1R,2R4R)-4-fluoro-2-phenyl-4-[2-(pyridin-2-yl)ethynyl]cyclohexyl]carbonyl}-4-hydroxypiperidin-4-yl)methyl]-6-(4-fluorophenoxy)pyrimidin-4-one], the IC50 in assay [1] (Homo sapiens, Z-138, 96 h) is 0.00214 µM; in assay [2], 3.29 nM.

`Nc1c(Oc2ccc(F)cc2)ncn(CC2(O)CCN(C(=O)[C@@H]3CC[C@](F)(C#Cc4ccc(F)cn4)C[C@H]3c3ccccc3)CC2)c1=O` [Example 133, 5-amino-3-[(1-{[(1R,2R4R)-4-fluoro-4-[2-(5-fluoropyridin-2-yl)ethynyl]-2-phenylcyclohexyl]carbonyl}-4-hydroxypiperidin-4-yl)methyl]-6-(4-fluorophenoxy)pyrimidin-4-one]: the IC50 in assay [1] (Homo sapiens, Z-138, 96 h) stood at 0.0187 µM; in assay [2], 31.5 nM.

Take `Nc1c(Oc2ccc(F)cc2)ncn(CC2(O)CCN(C(=O)[C@@H]3CC[C@@](F)(C#Cc4ccc(F)cn4)C[C@H]3c3ccccc3)CC2)c1=O` [Example 134, 5-amino-3-[(1-{[(1R,2R,4S)-4-fluoro-4-[2-(5-fluoropyridin-2-yl)ethynyl]-2-phenylcyclohexyl]carbonyl}-4-hydroxypiperidin-4-yl)methyl]-6-(4-fluorophenoxy)pyrimidin-4-one]: the concentration for half-maximal inhibition (IC50) in assay [1] (Homo sapiens, Z-138, 96 h) stood at 0.0309 µM; in assay [2], 80.7 nM.

For the molecule `Nc1c(Oc2ccc(F)cc2)ncn(CC2(O)CCN(C(=O)[C@@H]3CC[C@@](F)(C#Cc4cnccn4)C[C@H]3c3ccccc3)CC2)c1=O` [Example 137, 5-amino-3-({1-[(1R42R,4S)-4-fluoro-2-phenyl-4-[2-(pyrazin-2-yl)ethynyl]cyclohexanecarbonyl]-4-hydroxypiperidin-4-yl}methyl)-6-(4-fluorophenoxy)-3,4-dihydropyrimidin-4-one], the half-inhibitory concentration (IC50) came to 0.0246 µM in assay [1] (Homo sapiens, Z-138, 96 h) and 62.7 nM in assay [2].

In the case of `Nc1c(Oc2ccc(F)cc2)ncn(CC2(O)CCN(C(=O)[C@@H]3CC[C@](F)(C#Cc4cnccn4)C[C@H]3c3ccccc3)CC2)c1=O` [Example 138, 5-amino-3-({1-[(1R,2R,4R)-4-fluoro-2-phenyl-4-[2-(pyrazin-2-yl)ethynyl]cyclohexanecarbonyl]-4-hydroxypiperidin-4-yl}methyl)-6-(4-fluorophenoxy)-3,4-dihydropyrimidin-4-one], the IC50 in assay [1] (Homo sapiens, Z-138, 96 h) was found to be 0.00657 µM; in assay [2], 20.3 nM.

Turning to `CO[C@]1(C#Cc2cncnc2)CC[C@@H](C(=O)N2CCC(O)(Cn3cnc(Oc4ccc(F)cc4)c(N)c3=O)CC2)[C@H](c2ccccc2)C1` [Example 139, 5-amino-6-(4-fluorophenoxy)-3-[(4-hydroxy-1{[(1R, 2R,4R)-4-methoxy-2-phenyl-4-[2-(pyrimidin-5-yl)ethynyl]cyclohexyl]carbonyl}piperidin-4-yl)methyl]pyrimidin-4-one], the half-maximal inhibitory concentration (IC50) in assay [1] (Homo sapiens, Z-138, 96 h) is 0.0291 µM; in assay [2], 49.7 nM.

Consider `Nc1c(Oc2ccc(F)cc2)ncn(CC2(O)CCN(C(=O)[C@@H]3CC[C@@](F)(C#Cc4cncnc4)C[C@H]3c3ccccc3)CC2)c1=O` [Example 140, 5-amino-3-({1-[(1R,2R,4S)-4-fluoro-2-phenyl-4-[2-(pyrimidin-5-yl)ethynyl]cyclohexanecarbonyl]-4-hydroxypiperidin-4-yl}methyl)-6-(4-fluorophenoxy)-3,4-dihydropyrimidin-1-one], for which the half-inhibitory concentration (IC50) came out at 0.0498 µM in assay [1] (Homo sapiens, Z-138, 96 h) and 69.1 nM in assay [2].

With `Nc1c(Oc2ccc(F)cc2)ncn(CC2(O)CCN(C(=O)[C@@H]3CC[C@](F)(C#Cc4ncccn4)C[C@H]3c3ccccc3)CC2)c1=O` [Example 141, 5-amino-3-[(1-{[(1R,2R,4R)-4-fluoro-2-phenyl-4-[2-(pyrimidin-2-yl)ethynyl]cyclohexyl]carbonyl}-4-hydroxypiperidin-4-yl)methyl]-6-(4-fluorophenoxy)pyrimidin-4-one], the concentration for half-maximal inhibition (IC50) in assay [1] (Homo sapiens, Z-138, 96 h) came to 0.0117 µM; in assay [2] it was 41 nM.

`Nc1c(Oc2ccc(F)cc2)ncn(CC2(O)CCN(C(=O)[C@@H]3CC[C@@](F)(C#Cc4ncccn4)C[C@H]3c3ccccc3)CC2)c1=O` [Example 142, 5-amino-3-[(1-{[(1R,2R,4S)-4-fluoro-2-phenyl-4-[2-(pyrimidin-2-yl)ethynyl]cyclohexyl]carbonyl}-4-hydroxypiperidin-4-yl)methyl]-6-(4-fluorophenoxy)pyrimidin-4-one]: the half-inhibitory concentration (IC50) in assay [1] (Homo sapiens, Z-138, 96 h) was found to be 0.0176 µM; in assay [2], 58.8 nM.

As to `Nc1c(Oc2ccc(F)cc2)ncn(CC2(O)CCN(C(=O)[C@@H]3CC=C(C#Cc4ncccn4)C[C@H]3c3ccccc3)CC2)c1=O` [Example 143, 5-amino-6-(4-fluorophenoxy)-3-[(4-hydroxy-1-{[(1R,6R)-6-phenyl-4-[2-(pyrimidin-2-yl)ethynyl]cyclohex-3-en-1-yl]carbonyl}piperidin-4-yl)methyl]pyrimidin-4-one], the IC50 in assay [1] (Homo sapiens, Z-138, 96 h) was determined as 0.0787 µM; in assay [2], 56.5 nM.

With `Nc1c(Oc2ccc(F)cc2)ncn(CC2(O)CCN(C(=O)[C@@H]3CC[C@](F)(C#Cc4cncnc4)C[C@H]3c3ccccc3)CC2)c1=O` [Example 144, 5-amino-3-({1-[(1R,2R,4R)-4-fluoro-2-phenyl-4-[2-(pyrimidin-5-yl)ethynyl]cyclohexanecarbonyl]-4-hydroxypiperidin-4-yl}methyl)-6-(4-fluorophenyoxy)-3,4-dihydropyrimidin-4-one], the 50% inhibitory concentration (IC50) in assay [1] (Homo sapiens, Z-138, 96 h) was found to be 0.0122 µM; in assay [2], 21 nM.

As to `Nc1c(Oc2ccc(F)cc2)ncn(CC2(O)CCN(C(=O)[C@@H]3CC[C@](F)(C#Cc4cccnn4)C[C@H]3c3ccccc3)CC2)c1=O` [Example 145, 5-amino-3-[(1-{[(1R,2R,4R)-4-fluoro-2-phenyl-4-[2-(pyridazin-3-yl)ethynyl]cyclohexyl]carbonyl}-4-hydroxypiperidin-4-yl)methyl]-6-(4-fluorophenoxy)pyrimidin-4-one], the half-inhibitory concentration (IC50) in assay [1] (Homo sapiens, Z-138, 96 h) turned out to be 0.00231 µM; in assay [2] it was 8.66 nM.

Take `CO[C@]1(C#Cc2cccnn2)CC[C@@H](C(=O)N2CCC(O)(Cn3cnc(Oc4ccc(F)cc4)c(N)c3=O)CC2)[C@H](c2ccccc2)C1` [Example 146, 5-amino-6-(4-fluorophenoxy)-3-[(4-hydroxy-{[(1R,2R,4R)-4-methoxy-2-phenyl-4-[2-(pyridazin-3-yl)ethynyl]cyclohexyl]carbonyl}piperidin-4-yl)methyl]pyrimidin-4-one]: the IC50 was determined as 0.00597 µM in assay [1] and 18.5 nM in assay [2].

Consider `CO[C@@]1(C#Cc2cccnn2)CC[C@@H](C(=O)N2CCC(O)(Cn3cnc(Oc4ccc(F)cc4)c(N)c3=O)CC2)[C@H](c2ccccc2)C1` [Example 147, 5-amino-6-(4-fluorophenoxy)-3-[(4-hydroxy-1-{[(1R,2R,4S)-4-methoxy-2-phenyl-4-[2-(pyridazin-3-yl)ethynyl]cyclohexyl]carbonyl}piperidin-4-yl)methyl]pyrimidin-4-one], for which the half-maximal inhibitory concentration (IC50) was determined as 0.199 µM in assay [1] (Homo sapiens, Z-138, 96 h) and 124 nM in assay [2].

Take `Cc1nccnc1C#C[C@@]1(F)CC[C@@H](C(=O)N2CCC(O)(Cn3cnc(Oc4ccc(F)cc4)c(N)c3=O)CC2)[C@H](c2ccccc2)C1` [Example 148, 5-amino-3-({1-[(1R,2R,4R)-4-fluoro-4-[2-(3-methylpyrazin-2yl)ethynyl]-2-phenylcyclohexanecarbonyl]-4-hydroxypiperidin-4-yl}methyl)-6-(4-fluorophenoxy)-3,4-dihydropyrimidin-4-one]: the concentration for half-maximal inhibition (IC50) turned out to be 0.0101 µM in assay [1] (Homo sapiens, Z-138, 96 h) and 26.6 nM in assay [2].

For the molecule `Cn1ccnc1C#C[C@@]1(F)CC[C@@H](C(=O)N2CCC(O)(Cn3cnc(Oc4ccc(F)cc4)c(N)c3=O)CC2)[C@H](c2ccccc2)C1` [Example 149, 5-amino-3-[(1-{[(1R,2R,4R)-4-fluoro-4-[2-(1-methylimidazol-2-yl)ethynyl]-2-phenylcyclohexyl]carbonyl}-4-hydroxypiperidin-4-yl)methyl]-6-(4-fluorophenoxy)pyrimidin-4-one], the half-maximal inhibitory concentration (IC50) in assay [1] (Homo sapiens, Z-138, 96 h) worked out at 0.259 µM; in assay [2], 8.55 nM.

As to `Cc1cnc(C#CC2(F)CCC(C(=O)N3CCC(O)(Cn4cnc(Oc5ccc(F)cc5)c(N)c4=O)CC3)C(c3ccccc3)C2)cn1` [Example 150, 5-amino-3-({1-[1R,2R,4S)-4-fluoro-4-[2-(5-methylpyrazin-2-yl)ethynyl]-2-phenylcyclohexanecarbonyl]-4-hydroxypiperidin-4-yl}methyl)-6-(4-fluorophenoxy)-3,4-dihydropyrimidin-4-one], the IC50 was found to be 0.0258 µM in assay [1] (Homo sapiens, Z-138, 96 h) and 37.7 nM in assay [2].

Regarding `Cc1cnc(C#C[C@]2(F)CC[C@@H](C(=O)N3CCC(O)(Cn4cnc(Oc5ccc(F)cc5)c(N)c4=O)CC3)[C@H](c3ccccc3)C2)cn1` [Example 151, 5-amino-3-({1-[(1R,2R,4S)-4-fluoro-4-[2-(5-methylpyrazin-2-yl)ethynyl]-2-phenylcyclohexanecarbonyl]-4-hydroxypiperidin-4-yl}methyl)-6-(4-fluorophenoxy)-3,4-dihydropyrimidin-4-one], the IC50 in assay [1] (Homo sapiens, Z-138, 96 h) was found to be 0.0191 µM; in assay [2], 11.4 nM.

`Cn1ccnc1C#C[C@]1(F)CC[C@@H](C(=O)N2CCC(O)(Cn3cnc(Oc4ccc(F)cc4)c(N)c3=O)CC2)[C@H](c2ccccc2)C1` [Example 152]: the 50% inhibitory concentration (IC50) came out at 0.268 µM in assay [1] (Homo sapiens, Z-138, 96 h) and 30.3 nM in assay [2].
